The text below walks through data of patent publication US6777440B2, “HIV integrase inhibitors” (Bristol-Myers Squibb Company, priority 2001, dated 2004).

For one data set, the target named is T1, HIV-integrase (Human immunodeficiency virus type 1 group M subtype B, UniProt P04585).
T1 construct: 0.26 ng of recombinant integrase was incubated with the beads
Description: HIV-integrase inhibition activity (SPA bead strand-transfer assay). The class given is biochemical. The conditions noted are these: 50 μM compound; recombinant integrase. Here is the method:
For each reaction, 5 pmole of biotin labled substrate DNA was bound to 100 ug of Streptavidin coated PVT SPA beads (Amersham Pharmacia Biotech). 0.26 ng of recombinant integrase was incubated with the beads for 90 min at 37° C. Unbound enzyme was removed by washing the complex followed by addition of inhibitors and 0.1 fmol of P33 labeled target DNA. Reaction was stopped by adding EDTA to a final concentration of 10 mM. Samples were counted in TopCountNXT (Packard) and the CPM was used as a measure of integration. Reaction condition was as described in A. Engelman and R. Craigie, J. Virol. 69, 5908-5911 (1995). The sequences of substrate and target DNA were described in Nucleic Acid Research 22, 1121-1122 (1994). Compounds of this invention tested in this assay have IC50's of approximately 0.01 to 50 μM

The subject of data set [1] is single cycle, recombinant HIV virus expressing Renella luciferase. Description: Inhibition of HIV replication (single cycle recombinant virus, luciferase readout). The class given is cell-based. Conditions: Human immunodeficiency virus 1, 120 h, read-out: % Inhibition @ 1.6 uM. Here is the method: Cell culture assays were preformed using a single cycle, recombinant HIV virus expressing Renella luciferase. Anti-viral activity was evaluated by measuring the production of luciferase in the infected cells 5 days post-infection. Susceptibility of the virus to compounds was determined by incubation in the presence of the serially-diluted compound. The 50% effective concentration (EC50) was calculated by using the exponential form of the median effect equation where (Fa)=1/[1+(ED50/drug conc.)^m]. Compounds of this invention tested in this assay have EC50's of approximately 0.02 to 50 μM.

A short description of data set [2]: Hydrolysis of prodrugs under physiological conditions (pH 7, 37° C., HPLC). The conditions noted are these: 25 mM phosphate buffer pH 7, 37° C.; for Compound 3-C: remaining prodrug; for Compound 3: parent acid formed from 3-C. The class given is physicochemical. Here is the method:
As shown in Scheme VII, compounds of Formula VII-A wherein R^1 and R^2 are as defined for Formula I, are hydrolyzed at pH 7 (37° C.) to yield the corresponding 2-hydroxy acrylic, VII-B, and are thus useful as prodrugs. [drawing 203]
In an experiment to measure the hydrolysis of compounds such as VII-A, compound 3-C was added to 25 mM phosphate buffer (pH 7) at a concentration of 0.03 mg/mL. The reaction was incubated at 37° C. for a period of 24 hours. Interval time points are analyzed by HPLC, identifying both the compound 3-C and compound 3, the parent acid.

With `CON(Cc1ccccc1C)C(=O)/C=C(\O)C(=O)O` [Compound 15, 2-Hydroxy-3-[methoxy-(2-methyl-benzyl)-carbamoyl]-acrylic acid], the melting point was 85 to 87 °C (dec.). Further, the inhibition at 50 µM on HIV-integrase turned out to be 99%. Also, in data set [1], the inhibition at 1.6 µM was 33%.
`CON(Cc1ccc(F)c(Cl)c1)C(=O)/C=C1\OC(C)(C)OC1=O` [Compound 5-B, N-(3-Chloro-4-fluoro-benzyl)-2-(2,2-dimethyl-5-oxo-[1,3]dioxolan-4-ylidene)-N-methoxy-acetamide] registered a melting point of 110 to 111 °C. Further, in data set [1], the inhibition at 1.6 µM was determined as 94%.
The like results for `CON(Cc1ccc(Cl)c(Cl)c1)C(=O)/C=C1\OC(C)(C)OC1=O` [Compound 4-B, N-(3,4-Dichloro-benzyl)-2-(2,2-dimethyl-5-oxo-[1,3]dioxolan-4-ylidene)-N-methoxy-acetamide] were, in that order, 119 to 120 °C and 87%.
Take `CON(Cc1ccc(F)cc1)C(=O)/C=C1\OC(C)(C)OC1=O` [Compound 3-C, 2-(2,2-Dimethyl-5-oxo-[1,3]dioxolan-4-ylidene)-N-(4-fluoro-benzyl)-N-methoxy-acetamide]: in data set [1], the inhibition at 1.6 µM came out at 96%. For the same molecule, the “Compound 3-C” value in data set [2] (3-C added at 0.03 mg/mL, time 0 h) stood at 0.026 mg/mL; in data set [2] (time 0.5 h), 0.022 mg/mL; in data set [2] (time 1 h), 0.017 mg/mL; in data set [2] (time 1.5 h), 0.013 mg/mL; in data set [2] (time 2 h), 0.010 mg/mL; in data set [2] (time 4 h), 0.003 mg/mL. The “Compound 3-C” value in data set [2] (time 6 h) turned out to be 0.001 mg/mL.
As for `CON(Cc1ccc(F)cc1)C(=O)/C=C(\O)C(=O)O` [Compound 3, 3-[(4-Fluoro-benzyl)-methoxy-carbamoyl]-2-hydroxy-acrylic acid], the melting point was 129 °C (dec.). Moreover, the inhibition at 50 µM on HIV-integrase was 99.9%. Besides, the inhibition at 1.6 µM in data set [1] amounted to 96%. Moreover, the “Compound 3” value in data set [2] (time 0 h) is 0.001 mg/mL. The “Compound 3” value in data set [2] (time 0.5 h) is on record as 0.008 mg/mL. Further, the “Compound 3” value in data set [2] (time 1 h) amounted to 0.012 mg/mL. For the same molecule, in data set [2] (time 1.5 h), the “Compound 3” value was 0.014 mg/mL. In addition, in data set [2] (time 2 h), the “Compound 3” value is 0.016 mg/mL. Moreover, the “Compound 3” value in data set [2] (time 4 h) came to 0.021 mg/mL. Moreover, the “Compound 3” value in data set [2] (time 6 h) was 0.022 mg/mL.
For `CON(Cc1ccc(F)c(C#N)c1)C(=O)/C=C(\O)C(=O)O` [Compound 19, 3-[(3-Cyano-4-fluoro-benzyl)-methoxy-carbamoyl]-2-hydroxy-acrylic acid], the melting point is 144 to 151 °C (dec.). Besides, the inhibition at 50 µM on HIV-integrase amounted to 99.9%.
For the molecule `CON(Cc1ccc(F)c(Cl)c1)C(=O)/C=C(\O)C(=O)O` [Compound 5, 3-[(3-Chloro-4-fluoro-benzyl)-methoxy-carbamoyl]-2-hydroxy-acrylic acid], the inhibition at 50 µM on HIV-integrase turned out to be 99.9%. In addition, the inhibition at 1.6 µM in data set [1] is 96%.
With `COC(=O)c1ccc(CN(OC)C(=O)C=C(O)C(=O)O)cc1` [Compound 18, 4-{[(3-Carboxy-3-hydroxy-acryloyl)-methoxy-amino]-methyl}-benzoic acid methyl ester], the melting point was in the range of 110 to 111 °C. Moreover, the inhibition at 50 µM on HIV-integrase was found to be 96%.
The like results for `CN(C)C(=O)CON(Cc1ccc(F)cc1)C(=O)/C=C(\O)C(=O)O` [Compound 22, 3-[Dimethylcarbamoylmethoxy-(4-fluoro-benzyl)-carbamoyl]-2-hydroxy-acrylic acid] were, in that order, 118 to 120 °C and 99.9%.
The matching figures for `CON(CCc1ccc(F)cc1)C(=O)/C=C(\O)C(=O)O` [Compound 9, 3-{[2-(4-Fluoro-phenyl)-ethyl]-methoxy-carbamoyl}-2-hydroxy-acrylic acid]: 107 to 108 °C (dec.) and 99.9%.
Take `CON(Cc1ccccc1OC(C)C)C(=O)/C=C(\O)C(=O)O` [Compound 31, 2-Hydroxy-3-[(2-isopropoxy-benzyl)-methoxy-carbamoyl]-acrylic acid]: in data set [1], the inhibition at 1.6 µM was found to be 47%.
As for `CON(Cc1ccc(NC(C)=O)cc1)C(=O)/C=C(\O)C(=O)O` [Compound 23, 3-[(4-Acetylamino-benzyl)-methoxy-carbamoyl]-2-hydroxy-acrylic acid], the melting point is 155 °C (dec.). At HIV-integrase, the inhibition at 50 µM stood at 65%.
Turning to `CC(C)(C)OC(=O)CON(Cc1ccc(F)cc1)C(=O)/C=C(\O)C(=O)O` [Compound 20, 3-[tert-Butoxycarbonylmethoxy-(4-fluoro-benzyl)-carbamoyl]-2-hydroxy-acrylic acid], the melting point was 73 °C (dec.). The inhibition at 50 µM at HIV-integrase turned out to be 99.9%.
The like results for `CON(Cc1ccc(F)c(F)c1)C(=O)/C=C(\O)C(=O)O` [Compound 11, 3-[(3,4-Difluoro-benzyl)-methoxy-carbamoyl]-2-hydroxy-acrylic acid] were, in that order, 127 to 129 °C and 99.9%.
The matching figures for `CCON(Cc1ccc(F)cc1)C(=O)/C=C(\O)C(=O)O` [Compound 12, 3-[Ethoxy-(4-fluoro-benzyl)-carbamoyl]-2-hydroxy-acrylic acid]: 120 to 121 °C (dec.) and 99.9%.
The matching figures for `O=C(O)CON(Cc1ccc(F)cc1)C(=O)/C=C(\O)C(=O)O` [Compound 24, 3-[Carboxymethoxy-(4-fluoro-benzyl)-carbamoyl]-2-hydroxy-acrylic acid]: 135 to 138 °C and 99.9%.
As for `CON(Cc1ccc(Cl)c(Cl)c1)C(=O)/C=C(\O)C(=O)O` [Compound 4, 3-[(3,4-Dichloro-benzyl)-methoxy-carbamoyl]-2-hydroxy-acrylic acid], the inhibition at 50 µM on HIV-integrase worked out at 99.9%. The inhibition at 1.6 µM in data set [1] came to 90%.
For the molecule `CON(Cc1ccc(F)c(Br)c1)C(=O)/C=C(\O)C(=O)O` [Compound 14, 3-[(3-Bromo-4-fluoro-benzyl)-methoxy-carbamoyl]-2-hydroxy-acrylic acid], the melting point was in the range of 140 to 141 °C. Moreover, the inhibition at 50 µM on HIV-integrase turned out to be 99.9%.
